The values that follow come from patent US10752635B2, “Indazole compounds and uses thereof” (Incyte Corporation, priority 2018, dated 2020).

Molecules are shown by their SMILES.

Sequence of HPK1 (Q92918 1-346 limits assumed): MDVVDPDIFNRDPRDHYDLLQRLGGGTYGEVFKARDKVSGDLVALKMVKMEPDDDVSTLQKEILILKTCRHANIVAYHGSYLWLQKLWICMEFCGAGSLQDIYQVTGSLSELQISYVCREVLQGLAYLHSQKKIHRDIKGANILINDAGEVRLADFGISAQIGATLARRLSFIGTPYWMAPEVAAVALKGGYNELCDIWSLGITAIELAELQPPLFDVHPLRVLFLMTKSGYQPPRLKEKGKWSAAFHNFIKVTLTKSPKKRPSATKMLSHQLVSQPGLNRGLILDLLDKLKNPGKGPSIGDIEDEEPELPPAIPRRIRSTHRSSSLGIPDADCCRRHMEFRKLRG

For the assay, the target named is HPK1 (Homo sapiens (Human), UniProt Q92918). In words: HPK1 Kinase Binding Assay. The settings on record: active HPK1 (SignalChem M23-11G), tracer 222, LanthaScreen Eu-Anti GST antibody, one hour at 25° C. As to the method:
A stock solution of 1 mM test compound was prepared in DMSO. The compound plate was prepared by 3-fold and 11-point serial dilutions. 0.1 μL of the compound in DMSO was transferred from the compound plate to the white 384 well polystyrene plates. The assay buffer contained 50 mM HEPES, pH 7.5, 0.01% Tween-20, 5 mM MgCl2, 0.01% BSA, and 5 mM DTT. 5 μL of 4 nM active HPK1 (SignalChem M23-11G) prepared in the buffer was added to the plate. The enzyme concentration given was based on the given stock concentration reported by the vender. […] After one hour incubation at 25° C., the plates were read on a PHERAstar FS plate reader (BMG Labtech). Ki values were determined.
(Time-resolved FRET reads energy transfer from a long-lived donor to a nearby acceptor.)
In general, Ki refers to a dissociation constant, usually derived from enzyme kinetics or from competition with a known ligand. As for `COc1cccc(F)c1-c1nccc(C(=O)Nc2cc(F)c3c(cnn3-c3ccncc3C#N)c2N2C[C@@H](N)C[C@H]2CO)n1` [Example 34, N-(4-((2S,4S)-4-Amino-2-(hydroxymethyl)pyrrolidin-1-yl)-1-(3-cyanopyridin-4-yl)-7-fluoro-1H-indazol-5-yl)-2-(2-fluoro-6-methoxyphenyl)pyrimidine-4-carboxamide], the Ki was < 100 nM.

`COc1cccc(F)c1-c1nccc(C(=O)Nc2cc(F)c3c(cnn3CCF)c2N2C[C@@H]3C[C@H]2CN3)n1` [Example 36, N-(4-((1S,4S)-2,5-Diazabicyclo[2.2.1]heptan-2-yl)-7-fluoro-1-(2-fluoroethyl)-1H-indazol-5-yl)-2-(2-fluoro-6-methoxyphenyl)pyrimidine-4-carboxamide]: the Ki was < 100 nM.

In the case of `[2H]C([2H])([2H])Oc1ccc(C)c(F)c1-c1nccc(C(=O)Nc2cc(F)c3c(cnn3CCOC)c2N2C[C@@H](N)C[C@H]2CO)n1` [Example 37, N-(4-((2S,4S)-4-Amino-2-(hydroxymethyl)pyrrolidin-1-yl)-7-fluoro-1-(2-methoxyethyl)-1H-indazol-5-yl)-2-(2-fluoro-6-(methoxy-d3)-3-methylphenyl)pyrimidine-4-carboxamide], the Ki was < 100 nM.

On to `COCCn1ncc2c(N3C[C@@H](N)C[C@H]3CO)c(NC(=O)c3ccnc(-c4c(F)cc(N)cc4OC)n3)cc(F)c21` [Example 38, N-(4-((2S,4S)-4-Amino-2-(hydroxymethyl)pyrrolidin-1-yl)-7-fluoro-1-(2-methoxyethyl)-1H-indazol-5-yl)-2-(4-amino-2-fluoro-6-methoxyphenyl)pyrimidine-4-carboxamide], for which the Ki is < 100 nM.

Regarding `CNC(=O)c1ccc(OC)c(-c2nccc(C(=O)Nc3cc(F)c4c(cnn4CCOC)c3N3C[C@@H](N)C[C@H]3CO)n2)c1F` [Example 39, N-(4-((2S,4S)-4-Amino-2-(hydroxymethyl)pyrrolidin-1-yl)-7-fluoro-1-(2-methoxyethyl)-1H-indazol-5-yl)-2-(2-fluoro-6-methoxy-3-(methylcarbamoyl)phenyl)pyrimidine-4-carboxamide], the Ki was < 100 nM.

With `COCCn1ncc2c(N3C[C@@H](N)C[C@H]3CO)c(NC(=O)c3ccnc(-c4c(OC)ccc(-c5cnn(C)c5)c4F)n3)cc(F)c21` [Example 40, N-(4-((2S,4S)-4-Amino-2-(hydroxymethyl)pyrrolidin-1-yl)-7-fluoro-1-(2-methoxyethyl)-1H-indazol-5-yl)-2-(2-fluoro-6-methoxy-3-(1-methyl-1H-pyrazol-4-yl)phenyl)pyrimidine-4-carboxamide], the Ki was < 100 nM.

For `COc1cccc(F)c1-c1nccc(C(=O)Nc2cc(F)c3c(cnn3C)c2N(C)[C@@H]2CCCNC2)n1` [Example 41, (R)—N-(7-Fluoro-1-methyl-4-(methyl(piperidin-3-yl)amino)-1H-indazol-5-yl)-2-(2-fluoro-6-methoxyphenyl)pyrimidine-4-carboxamide], the Ki was < 100 nM.

In the case of `COCCn1ncc2c(N3C[C@@H](N)C[C@H]3CO)c(NC(=O)c3cccc(-c4c(F)cccc4OC)n3)cc(F)c21` [Example 42, N-(4-((2S,4S)-4-Amino-2-(hydroxymethyl)pyrrolidin-1-yl)-7-fluoro-1-(2-methoxyethyl)-1H-indazol-5-yl)-6-(2-fluoro-6-methoxyphenyl)picolinamide], the Ki is < 100 nM.
